Source: US20110009489A1, “COSMETIC COMPOSITION COMPRISING VITAMIN U AS ACTIVE INGREDIENT FOR HEALING WOUNDS AND REDUCING WRINKLES” (CUSKIN CO., LTD., priority 2008, published 2011)

Legend:
[1] = tested on: human epidermal keratinocytes; settings: vitamin U 10^−2, 10^−3, 10^−4 M, 1/10 growth factor, scratch; vs control not treated with vitamin U
Description: The following experiment was performed to investigate if vitamin U could increase the movement of human epidermal keratinocytes (hereinafter hEK) in vitro. The basic culture medium was obtained fromDefined Keratinocyte-SFM (Gibco, USA) with Defined Keratinocyte-SFM Growth supplement and growth factors. For the experiment, such an amount of 1/10 growth factor and vitamin U were added that the final concentrations of vitamin U should be 10^−2, 10^−3, and 10^−4 M. In the meantime, vitamin-free medium containing 1/10 growth factor was used for the control.
Human keratinocytes were cultured in a 6-well culture dish until the cells were grown at least 90% confluent. The cells were scratched out by using 2 mm micro tip. The fallen-off cells were washed out with PBS, followed by culture in another experimental medium.

gastric mucosa [2] = settings: pig, vitamin U administered; cited from earlier work
human dermal fibroblasts = settings: vitamin U 10^−2 or 10^−3 M, DMEM with 1% FBS, scratch; vs control not treated with vitamin
Description: The medium used for the wound healing experiment was obtained from DMEM with 1% FBS. Such an amount of vitamin U was added that the final vitamin U concentration should be 10^−2 or 10^−3 M. In the meantime, vitamin-free medium containing 1% FBS was used for the control.
Human fibroblasts were cultured in a 6-well culture dish until the cells were grown at least 90% confluent. The cells were scratched out by using 2 mm micro tip. The fallen-off cells were washed out with PBS, followed by culture in another experimental medium. Then, it was observed by photograph how many cells migrate into the room between scratches.

collagenase mRNA = settings: mouse, in vivo
Description: (§1) An experiment on Inhibitory effect on collagenase of the cosmetic composition containing vitamin U of the present invention was carried out. The experiment was carried for 4 weeks with the Atrichia mice divided into two groups, each of which is composed of 10 mice. Vitamin U containing cosmetic formula, prepared in cream with 10% vitamin U, was applied onto the back skin of the experimental group mouse every day. In the meantime, vitamin U-free ordinary formula was applied on the control. 4 weeks later, back skin was picked from both groups. RNA was extracted from the skin tissues, followed by real-time PCR to investigate the transcription level of collagenase mRNA (FIG. 8).

collagen = settings: mouse, in vivo
Description: as §1

gastric mucosa [3] = settings: rabbit, vitamin U administered; cited from earlier work

For CS.CSCCC(N)C(=O)O.Cl (racemic) [vitamin U, DL-methionine methylsulfonium chloride], the migration of keratinocytes [1] is listed as “much more increased”, the “ulcer of gastric mucosa” value (gastric mucosa [2]) is listed as “suppressed” and the migration of fibroblasts (human dermal fibroblasts) is listed as “much more increased”. The “collagenase mRNA transcription” value (collagenase mRNA) was “significant inhibition”, the “collagen (Western blotting)” value (collagen) was “increase of collagen” and the “mucin secretion of gastric mucosa” value (gastric mucosa [3]) was “increased”.
